Target: T1, human full-length recombinant PKC βII (Homo sapiens, UniProt P05771)
T1 construct: Active human full-length recombinant PKC βII; purchased Invitrogen GmbH, Darmstadt, Germany
Test: Determination of PKC βII inhibition (Caliper mobility-shift kinase assay)
Assay type: biochemical
Conditions: example compounds at a final concentration of 1.14 μM (±0.15 μM); 60 min incubation at 32° C.
Procedure: Determination of PKC 3H Inhibition
PKC βII inhibition was determined according to the following protocol:
Active human full-length recombinant PKC βII and the peptide substrate, Fluorescein-RFARKGSLRQKNV, were purchased from Invitrogen GmbH, Darmstadt, Germany. Adenosine-5′-triphosphate (ATP), bovine serum albumine (BSA), dimethylsulphoxide (DMSO), 4-(2-hydroxyethyl)piperazine-1-ethanesulfonic acid (Hepes), Triton X-100, 1,2-Dioleoyl-sn-glycerol (DAG), L-α-Phosphatidyl-L-serine (PS), calcium chloride (CaCl2), and Pluronic F-68 were purchased from Sigma-Aldrich, Munich, Germany. Magnesium chloride, 1 M sodium hydroxide solution, 1M hydrochloric acid solution and EDTA were obtained from Merck Biosciences, Darmstadt, Germany.
Test compounds were diluted to three times the test concentration in buffer 1 (30 mM Hepes-NaOH, pH 7.4, 0.01% Pluronic F-68 and 3% (v/v) DMSO). The PKC βII enzyme was diluted to a concentration of 30 ng/ml in buffer 2 (30 mM Hepes-NaOH, pH 7.4, 15 mM MgCl2, 150 μM CaCl2, 150 μg/ml PS, 60 μg/ml DAG, and 0.045% (w/v) Triton X-100). The peptide substrate and ATP were diluted to concentrations of 3 μM and 120 μM, respectively, in buffer 2. Two μl of the compound solution were mixed with 2 μl of the diluted enzyme in a 384-well small volume microtiter plate (Greiner, Bio-One, Frickenhausen, Germany), and the kinase reaction was initiated by addition of 2 μl of the solution containing peptide substrate and ATP. After 60 min incubation at 32° C., the reaction was stopped by addition of 20 μl of a solution containing 130 mM Hepes-NaOH, pH 7.4, 0.0195% (v/v) Brij-35, 6.5 mM EDTA, 0.13% chip coating reagent 3 (Caliper Lifescience Inc, Hopkinton, Mass.) and 6.5% (v/v) DMSO. Phosphorylation of the substrate peptide was then detected on a Caliper 3000 instrument essentially as described by Pommereau et al (J. Biomol. Screening 2004, 9(5), […]), Separation conditions were as follows: Pressure −0.8 psi, upstream voltage −3000 V, downstream voltage −800 V. Positive controls (buffer 1 instead of compound) and negative controls (buffer 1 instead of compound and buffer 2 instead of kinase solution) were run in parallel on each plate. Fractional turnover (R) was determined as the height of the peak of the phosphorylated peptide product divided by the sum of the unphosphorylated substrate and phosphorylated product peak heights. Percent-inhibition values for the test compounds were determined using the formula
% Inhibition=100*(1−(Rcompound−Rnegative control)/(Rpositive control−Rnegative control).

T1 sequence (P05771 1-673 isoform P05771-2): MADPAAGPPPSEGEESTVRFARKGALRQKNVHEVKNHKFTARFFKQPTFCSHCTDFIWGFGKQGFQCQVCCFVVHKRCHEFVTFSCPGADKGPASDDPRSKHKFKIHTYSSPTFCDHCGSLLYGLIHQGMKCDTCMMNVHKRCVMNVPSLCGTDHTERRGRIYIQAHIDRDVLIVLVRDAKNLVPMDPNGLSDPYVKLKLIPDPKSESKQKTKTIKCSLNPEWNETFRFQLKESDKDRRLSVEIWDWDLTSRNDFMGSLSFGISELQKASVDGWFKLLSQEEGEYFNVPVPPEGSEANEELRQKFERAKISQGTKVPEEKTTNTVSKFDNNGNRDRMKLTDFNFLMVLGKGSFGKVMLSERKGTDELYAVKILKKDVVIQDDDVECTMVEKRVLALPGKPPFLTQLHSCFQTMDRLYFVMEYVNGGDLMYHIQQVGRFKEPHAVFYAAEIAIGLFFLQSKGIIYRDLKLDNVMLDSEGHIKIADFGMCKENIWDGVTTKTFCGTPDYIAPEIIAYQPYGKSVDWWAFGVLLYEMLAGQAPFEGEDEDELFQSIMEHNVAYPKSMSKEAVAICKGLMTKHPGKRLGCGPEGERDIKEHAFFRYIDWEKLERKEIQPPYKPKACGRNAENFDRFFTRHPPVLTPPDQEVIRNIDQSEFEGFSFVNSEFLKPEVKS

Row | SMILES | inhibition at 1.14 µM [%]
1 | NC1CN(C(=O)c2cc(-c3ccc(O)cc3)nc3[nH]ncc23)C1 [Example 36, (3-Amino-azetidin-1-yl)-[6-(4-hydroxy-phenyl)-1H-pyrazolo[3,4-b]pyridin-4-yl]-methanone] | 54
2 | NC1CCN(C(=O)c2cc(-c3ccc(O)cc3)nc3[nH]ncc23)CC1 [Example 38, (4-Amino-piperidin-1-yl)-[6-(4-hydroxy-phenyl)-1H-pyrazolo[3,4-b]pyridin-4-yl]-methanone] | 60
3 | CNC1CCN(C(=O)c2cc(-c3ccc(O)cc3)nc3[nH]ncc23)C1 (stereo not shown) [Example 39, [6-(4-Hydroxy-phenyl)-1H-pyrazolo[3,4-b]pyridin-4-yl]-(3-methylamino-pyrrolidin-1-yl)-methanone] | 62
4 | O=C(N[C@@H]1CN2CCC1CC2)c1cc(-c2ccc(O)cc2)nc2[nH]ncc12 [Example 40, 6-(4-Hydroxy-phenyl)-1H-pyrazolo[3,4-b]pyridine-4-carboxylic acid-(S)-(1-Aza-bicyclo[2.2.2]oct-3-yl)amide] | 71
5 | NC1CCN(C(=O)c2cc(-c3ccc(O)cc3)nc3[nH]ncc23)C1 (stereo not shown) [Example 45, (3-Amino-pyrrolidin-1-yl)-[6-(4-hydroxy-phenyl)-1H-pyrazolo[3,4-b]pyridin-4-yl]-methanone] | 50
6 | O=C(c1cc(-c2ccc(O)cc2)nc2[nH]ncc12)N1CC2CC1CN2 (stereo not shown) [Example 47, 2,5-Diaza-bicyclo[2.2.1]hept-2-yl-[6-(4-hydroxy-phenyl)-1H-pyrazolo[3,4-b]pyridin-4-yl]-methanone] | 81
7 | CN1CCN(C(=O)c2cc(-c3ccc(O)cc3)nc3[nH]ncc23)CC1 [Example 52, [6-(4-Hydroxy-phenyl)-1H-pyrazolo[3,4-b]pyridin-4-yl]-(4-methyl-piperazin-1-yl)-methanone] | 38
8 | CC(=O)N1CCN(C(=O)c2cc(-c3ccc(O)cc3)nc3[nH]ncc23)CC1 [Example 53, 1-{4-[6-(4-Hydroxy-phenyl)-1H-pyrazolo[3,4-b]pyridine-4-carbonyl]-piperazin-1-yl}-ethanone] | 46
9 | O=C(c1cc(-c2ccc(O)cc2)nc2[nH]ncc12)N1CCC[C@H]1CN1CCCC1 [Example 54, [6-(4-Hydroxy-phenyl)-1H-pyrazolo[3,4-b]pyridin-4-yl]-((S)-2-pyrrolidin-1-ylmethyl-pyrrolidin-1-yl)-methanone] | 20
10 | CN(C)[C@H]1CCN(C(=O)c2cc(-c3ccc(O)cc3)nc3[nH]ncc23)C1 [Example 55, ((S)-3-Dimethylamino-pyrrolidin-1-yl)-[6-(4-hydroxy-phenyl)-1H-pyrazolo[3,4-b]pyridin-4-yl]-methanone] | 47
11 | CC(C)N1CCN(C(=O)c2cc(-c3ccc(O)cc3)nc3[nH]ncc23)CC1 [Example 56, [6-(4-Hydroxy-phenyl)-1H-pyrazolo[3,4-b]pyridin-4-yl]-(4-isopropyl-piperazin-1-yl)-methanone] | 23
12 | O=C(c1cc(-c2ccc(O)cc2)nc2[nH]ncc12)N1CCN(C(=O)C2CC2)CC1 [Example 57, (4-Cyclopropanecarbonyl-piperazin-1-yl)-[6-(4-hydroxy-phenyl)-1H-pyrazolo[3,4-b]pyridin-4-yl]-methanone] | 28
13 | O=C(c1cc(-c2ccc(O)cc2)nc2[nH]ncc12)N1CCN(C2CCCCCC2)CC1 [Example 58, (4-Cycloheptyl-piperazin-1-yl)-[6-(4-hydroxy-phenyl)-1H-pyrazolo[3,4-b]pyridin-4-yl]-methanone] | 40
14 | CC(=O)N1CCCN(C(=O)c2cc(-c3ccc(O)cc3)nc3[nH]ncc23)CC1 [Example 59, 1-{4-[6-(4-Hydroxy-phenyl)-1H-pyrazolo[3,4-b]pyridine-4-carbonyl]-[1,4]diazepan-1-yl}-ethanone] | 48
15 | O=C(c1cc(-c2ccc(O)cc2)nc2[nH]ncc12)N1CCN(C(=O)C2CCCO2)CC1 (stereo not shown) [Example 61, [6-(4-Hydroxy-phenyl)-1H-pyrazolo[3,4-b]pyridin-4-yl]-[4-(tetrahydro-furan-2-carbonyl)-piperazin-1-yl]-methanone] | 22

Now from value to molecule:

Row | inhibition at 1.14 µM [%] | SMILES
16 | 68 | N[C@H]1C[C@H](NC(=O)c2cc(-c3ccc(O)cc3)nc3[nH]ncc23)C1 [Example 30, 6-(4-Hydroxy-phenyl)-1H-pyrazolo[3,4-b]pyridine-4-carboxylic acid (trans-3-amino-cyclobutyl)-amide]
17 | 53 | O=C(c1cc(-c2ccc(O)cc2)nc2[nH]ncc12)N1CCC2(CNCCO2)C1 (stereo not shown) [Example 31, [6-(4-Hydroxy-phenyl)-1H-pyrazolo[3,4-b]pyridin-4-yl]-(6-oxa-2,9-diaza-spiro[4.5]dec-2-yl)-methanone]
18 | 69 | O=C(NC1CCNC2(CCC2)C1)c1cc(-c2ccc(O)cc2)nc2[nH]ncc12 (stereo not shown) [Example 32, 6-(4-Hydroxy-phenyl)-1H-pyrazolo[3,4-b]pyridine-4-carboxylic acid (5-aza-spiro[3.5]non-8-yl)-amide]
19 | 87 | NC1CCCC(NC(=O)c2cc(-c3ccc(O)cc3)nc3[nH]ncc23)C1 (stereo not shown) [Example 33, 6-(4-Hydroxy-phenyl)-1H-pyrazolo[3,4-b]pyridine-4-carboxylic acid (3-amino-cyclohexyl)-amide]
20 | 45 | O=C(c1cc(-c2ccc(O)cc2)nc2[nH]ncc12)N1CCC2CNCC21 (stereo not shown) [Example 34, (Hexahydro-pyrrolo[3,4-b]pyrrol-1-yl)-[6-(4-hydroxy-phenyl)-1H-pyrazolo[3,4-b]pyridin-4-yl]-methanone]
21 | 82 | O=C(NC1CNC1)c1cc(-c2ccc(O)cc2)nc2[nH]ncc12 [Example 35, 6-(4-Hydroxy-phenyl)-1H-pyrazolo[3,4-b]pyridine-4-carboxylic acid azetidin-3-ylamide]
22 | 91 | CC1CN(C(=O)c2cc(-c3ccc(O)cc3)nc3[nH]ncc23)CCN1 (stereo not shown) [Example 37, [6-(4-Hydroxy-phenyl)-1H-pyrazolo[3,4-b]pyridin-4-yl]-(3-methyl-piperazin-1-yl)-methanone]
23 | 73 | CN1CCCC(NC(=O)c2cc(-c3ccc(O)cc3)nc3[nH]ncc23)C1 (stereo not shown) [Example 41, 6-(4-Hydroxy-phenyl)-1H-pyrazolo[3,4-b]pyridine-4-carboxylic acid (1-methyl-piperidin-3-yl)-amide]
24 | 39 | CN(C(=O)c1cc(-c2ccc(O)cc2)nc2[nH]ncc12)C1CCNCC1 [Example 42, 6-(4-Hydroxy-phenyl)-1H-pyrazolo[3,4-b]pyridine-4-carboxylic acid methyl-piperidin-4-yl-amide]
25 | 52 | O=C(c1cc(-c2ccc(O)cc2)nc2[nH]ncc12)N1CCC2(CCNC2)CC1 [Example 43, (2,8-Diaza-spiro[4.5]dec-8-yl)-[6-(4-hydroxy-phenyl)-1H-pyrazolo[3,4-b]pyridin-4-yl]-methanone]
26 | 44 | O=C(c1cc(-c2ccc(O)cc2)nc2[nH]ncc12)N1CCC2(CCNCC2)CC1 [Example 44, (3,9-Diaza-spiro[5.5]undec-3-yl)-[6-(4-hydroxy-phenyl)-1H-pyrazolo[3,4-b]pyridin-4-yl]-methanone]
27 | 39 | O=C(c1cc(-c2ccc(O)cc2)nc2[nH]ncc12)N1CC2CNCC2C1 (stereo not shown) [Example 46, (Hexahydro-pyrrolo[3,4-c]pyrrol-2-yl)-[6-(4-hydroxy-phenyl)-1H-pyrazolo[3,4-b]pyridin-4-yl]-methanone]
28 | 28 | O=C(c1cc(-c2ccc(O)cc2)nc2[nH]ncc12)N1CCC2(CC1)CNc1ccccc12 [Example 49]
29 | 97 | O=C(NC1CC2(CCNCC2)c2ccccc21)c1cc(-c2ccc(O)cc2)nc2[nH]ncc12 (stereo not shown) [Example 50, 6-(4-hydroxy-phenyl)-1H-pyrazolo[3,4-b]pyridine-4-carboxylic acid (2,3-dihydrospiro[1H-indene-1,4′-piperidin]-3-yl)-amide]
30 | 54 | CCN1CCCC(NC(=O)c2cc(-c3ccc(O)cc3)nc3[nH]ncc23)C1 (stereo not shown) [Example 60, 6-(4-Hydroxy-phenyl)-1H-pyrazolo[3,4-b]pyridine-4-carboxylic acid (1-ethyl-piperidin-3-yl)-amide]
31 | 73 | CN1CC(NC(=O)c2cc(-c3ccc(O)cc3)nc3[nH]ncc23)C1 [Example 62, 6-(4-Hydroxy-phenyl)-1H-pyrazolo[3,4-b]pyridine-4-carboxylic acid (1-methyl-azetidin-3-yl)-amide]

From US20130150340A1, “6-(4-Hydroxy-phenyl)-1H-pyrazolo[3,4-b]pyridine-4-carboxylic acid amide derivatives as kinase inhibitors” (SANOFI, priority 2011, published 2013)
